Data taken from patent EP4818194A1, “CHEMICALLY MODIFIED POLYPEPTIDE” (priority 2023, dated 2025).
Where a SMILES comes first, the peptide text is derived from it. Where no end group is shown, it is not given here. [ ]: non-standard residue; d: D form. pY = N[C@@H](Cc1ccc(OP(=O)(O)O)cc1)C(=O)O; NMeY = CN[C@@H](Cc1ccc(O)cc1)C(=O)O; Tle = CC(C)(C)[C@H](N)C(=O)O; Aib = CC(C)(N)C(=O)O

Key:
[1] = system: PC-12 cells; type: cell-based; conditions: for Normalized cell viability (%): PC-12 cells, 10 nM polypeptide pretreatment for 30 minutes, then glutamate stimulation for 24 hours, normalized to positive control MK-801 and glutamate group
Procedure: PC-12 cells (a […] cell line derived from rat adrenal medulla) were cultured in DMEM/F12 complete medium until eaching 80-90% confluence. The cells were then digested, collected, resuspended, and seeded at density of 5 × 10^4 cells per well in a 24-well plate precoated with coverslips. Following 26 hours of cell culture, excitotoxic cell death was induced by glutamate stimulation. For model establishment: an appropriate amount of glutamate was weighed and dissolved in DMEM/F12 medium to prepare a stock solution. After filtration, the stock solution was diluted with culture medium and administered to the cells via medium replacement. The cells were further incubated for 24 hours after administration.
Prior to glutamate modeling, cells incubated as described in the previous step were pretreated with 10 nM of the polypeptide compound according to the present application for 30 minutes, followed by glutamate stimulation.
Cells treated with the polypeptide compound according to the present application were stained with propidium iodide to assess cell death. After discarding the culture medium, the cells were washed with PBS, and propidium iodide/Hoechst was added. After incubating for 30 minutes, the cells were removed and the staining solution was discarded. After washing with PBS, the cells were fixed and mounted, and subjected to image acquisition under a fluorescence microscope. The number of propidium iodide-positive cells and Hoechst-positive cells in the acquired images was counted to calculate the cell viability. MK-801 was used as the positive control compound. The normalized cell viability was calculated using the following formula: (cell viability of the compound group - cell viability of the glutamate group) / (cell viability of the positive control group - cell viability of the glutamate group) × 100%.
Based on the above dose-response studies of the compound, the inhibitory effects of different small-molecule compounds at the same dose (10 nM) against excitotoxic death in PC-12 neurons cells were further compared. […]

[2] = Pharmacokinetic characteristics in rats after intravenous administration (plasma, LC-MS/MS); type: in vivo; conditions: rat, SD rats, tail vein, 10 mg/kg; for Vd: read-out: Vss
Procedure: Intravenous administration: Three SD rats per group were administered the compounds of Example 1, Example 2, Example 3, Example 6, Example 7, Example 17, and Example 19 via the tail vein, respectively, at a dose of 10 mg/kg. all SD rats were allowed free access to food and water after administration. Plasma was collected 3 min, 10 min, 30 min, 1 h, 2 h, 6 h, 10 h, and 24 h after administration, with 3 rats per time point.
Sample processing: Whole blood was anticoagulated with EDTA-K2. Within 30 minutes of collection, the blood was centrifuged at 3000g for 10 minutes at 2-8°C. After centrifugation, the separated plasma was transferred to new 1.5 mL centrifuge tubes and stored at -80°C.
Analytical method: The concentrations of each compounds in rat plasma were determined by LC-MS/MS using Shimadzu LC30AD and AB Sciex QTRAP 6500+instruments. The relevant pharmacokinetic parameters after administration were calculated. Table 5: Pharmacokinetic parameters after administration

EC50 ([1]; 26 h) [nM] | Compound | Normalized cell viability (%) [1] [%] | MRT [2] [h] | half-life [2] [h] | Vd [2] [L/kg]
– | Ac-YGRKKRRQRRRKKNRNKLRRQHSY [Example 4] | 85.00 | – | – | –
– | Ac-YGRKKRRQRRRKKNRNKLRRQHSY-NH2 [Example 7] | – | 1.93 | 1.51 | 3.58
– | YGRKKRRQRRRKKNRNKLRRQHSY [Example 1, reference compound] | 41.00 | 0.87 | 0.76 | 1.29
1.35 | CN[C@@H](Cc1ccc(O)cc1)C(=O)NC(C)(C)C(=O)N[C@@H](CCCNC(=N)N)C(=O)N[C@@H](CCCCN)C(=O)N[C@@H](CCCCN)C(=O)N[C@@H](CCCNC(=N)N)C(=O)N[C@@H](CCCNC(=N)N)C(=O)N[C@@H](CCC(=O)O)C(=O)N[C@@H](CCCNC(=N)N)C(=O)N[C@@H](CCCNC(=N)N)C(=O)N[C@@H](CCCNC(=N)N)C(=O)N[C@@H](CCCCN)C(=O)N[C@@H](CCCCN)C(=O)N[C@@H](CC(=O)O)C(=O)N[C@@H](CCCNC(=N)N)C(=O)N[C@@H](CC(=O)O)C(=O)N[C@@H](CCCCN)C(=O)N[C@H](C(=O)N[C@@H](CCCNC(=N)N)C(=O)N[C@@H](CCCNC(=N)N)C(=O)N[C@@H](CCC(=O)O)C(=O)N[C@@H](Cc1c[nH]cn1)C(=O)N[C@@H](CO)C(=O)N[C@@H](Cc1ccc(O)cc1)C(N)=O)C(C)(C)C [Example 24, Me-YAibRKKRRERRRKKDRDKTleRREHSY-NH2] (H-[NMeY][Aib]RKKRRERRRKKDRDK[Tle]RREHSY-NH2) | – | – | – | –
– | CC(C)C[C@H](NC(=O)[C@H](CCCCN)NC(=O)[C@H](CC(N)=O)NC(=O)[C@H](CCCNC(=N)N)NC(=O)[C@H](CC(N)=O)NC(=O)[C@H](CCCCN)NC(=O)[C@H](CCCCN)NC(=O)[C@H](CCCNC(=N)N)NC(=O)[C@H](CCCNC(=N)N)NC(=O)[C@H](CCCNC(=N)N)NC(=O)[C@H](CCC(N)=O)NC(=O)[C@H](CCCNC(=N)N)NC(=O)[C@H](CCCNC(=N)N)NC(=O)[C@H](CCCCN)NC(=O)[C@H](CCCCN)NC(=O)[C@H](CCCNC(=N)N)NC(=O)CNC(=O)[C@@H](N)Cc1ccc(OP(=O)(O)O)cc1)C(=O)N[C@@H](CCCNC(=N)N)C(=O)N[C@@H](CCCNC(=N)N)C(=O)N[C@@H](CCC(N)=O)C(=O)N[C@@H](Cc1c[nH]cn1)C(=O)N[C@@H](CO)C(=O)N[C@@H](Cc1ccc(O)cc1)C(=O)O [Example 3] (H-[pY]GRKKRRQRRRKKNRNKLRRQHSY-OH) | – | 1.71 | 1.28 | 7.9
– | CN[C@@H](Cc1ccc(O)cc1)C(=O)NCC(=O)N[C@@H](CCCNC(=N)N)C(=O)N[C@@H](CCCCN)C(=O)N[C@@H](CCCCN)C(=O)N[C@@H](CCCNC(=N)N)C(=O)N[C@@H](CCCNC(=N)N)C(=O)N[C@@H](CCC(N)=O)C(=O)N[C@@H](CCCNC(=N)N)C(=O)N[C@@H](CCCNC(=N)N)C(=O)N[C@@H](CCCNC(=N)N)C(=O)N[C@@H](CCCCN)C(=O)N[C@@H](CCCCN)C(=O)N[C@@H](CC(N)=O)C(=O)N[C@@H](CCCNC(=N)N)C(=O)N[C@@H](CC(N)=O)C(=O)N[C@@H](CCCCN)C(=O)N[C@@H](CC(C)C)C(=O)N[C@@H](CCCNC(=N)N)C(=O)N[C@@H](CCCNC(=N)N)C(=O)N[C@@H](CCC(N)=O)C(=O)N[C@@H](Cc1c[nH]cn1)C(=O)N[C@@H](CO)C(=O)N[C@@H](Cc1ccc(O)cc1)C(=O)O [Example 2] (H-[NMeY]GRKKRRQRRRKKNRNKLRRQHSY-OH) | – | 1.84 | 1.73 | 3.94
– | CN[C@@H](Cc1ccc(O)cc1)C(=O)NCC(=O)N[C@@H](CCCNC(=N)N)C(=O)N[C@@H](CCCCN)C(=O)N[C@@H](CCCCN)C(=O)N[C@@H](CCCNC(=N)N)C(=O)N[C@@H](CCCNC(=N)N)C(=O)N[C@@H](CCC(=O)O)C(=O)N[C@@H](CCCNC(=N)N)C(=O)N[C@@H](CCCNC(=N)N)C(=O)N[C@@H](CCCNC(=N)N)C(=O)N[C@@H](CCCCN)C(=O)N[C@@H](CCCCN)C(=O)N[C@@H](CC(=O)O)C(=O)N[C@@H](CCCNC(=N)N)C(=O)N[C@@H](CC(=O)O)C(=O)N[C@@H](CCCCN)C(=O)N[C@@H](CC(C)C)C(=O)N[C@@H](CCCNC(=N)N)C(=O)N[C@@H](CCCNC(=N)N)C(=O)N[C@@H](CCC(=O)O)C(=O)N[C@@H](Cc1c[nH]cn1)C(=O)N[C@@H](CO)C(=O)N[C@@H](Cc1ccc(O)cc1)C(N)=O [Example 19] (H-[NMeY]GRKKRRERRRKKDRDKLRREHSY-NH2) | – | 1.73 | 1.16 | 9.11
– | YGRKKRRERRRKKDRNKLRRQHSY [Example 17] | – | 2.29 | 1.66 | 23.1
– | YGRKKRRQRRRKKNRNKLRRQHSY-NH2 [Example 6] | – | 1.65 | 1.23 | 2.53
